Tests used:
Assay type in all cases: biochemical
GST-PLK2 = target: T1, GST-PLK2 (Homo sapiens, UniProt Q9NYY3); assay: PLK TR-FRET peptide assay, PLK2; details: for IC50: PLK TR-FRET peptide assay, GST-PLK2, read-out: Plk2 IC50; for PLK2 activity relative to the opposite enantiomer / other isomer: comparison of resolved enantiomers, used to assign absolute configuration
T1 construct: purchased CarnaBio

GST-PLK3 = target: T2, GST-PLK3 (Homo sapiens, UniProt Q9H4B4); assay: PLK TR-FRET peptide assay, PLK3; details: PLK TR-FRET peptide assay, GST-PLK3; read-out: Plk3 IC50
T2 construct: purchased CarnaBio
T2 sequence (Q9H4B4 whole entry): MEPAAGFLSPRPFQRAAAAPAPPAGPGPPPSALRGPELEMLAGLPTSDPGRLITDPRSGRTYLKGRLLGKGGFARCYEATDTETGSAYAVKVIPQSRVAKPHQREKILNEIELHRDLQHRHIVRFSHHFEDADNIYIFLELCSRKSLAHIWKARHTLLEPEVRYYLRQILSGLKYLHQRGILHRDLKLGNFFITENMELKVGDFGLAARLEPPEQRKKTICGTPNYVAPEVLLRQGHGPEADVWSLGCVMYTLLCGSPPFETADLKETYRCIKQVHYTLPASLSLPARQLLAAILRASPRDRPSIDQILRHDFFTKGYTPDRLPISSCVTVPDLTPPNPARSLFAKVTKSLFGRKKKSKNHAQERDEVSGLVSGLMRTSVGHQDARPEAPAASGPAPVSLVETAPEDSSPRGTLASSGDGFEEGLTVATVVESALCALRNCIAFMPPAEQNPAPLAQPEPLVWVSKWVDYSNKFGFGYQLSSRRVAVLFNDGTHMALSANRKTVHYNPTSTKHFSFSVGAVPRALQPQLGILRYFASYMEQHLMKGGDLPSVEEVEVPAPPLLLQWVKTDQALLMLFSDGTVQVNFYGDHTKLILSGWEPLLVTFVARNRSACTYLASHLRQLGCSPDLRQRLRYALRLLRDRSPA

GST-PLK1 = GST-PLK1 (Homo sapiens, UniProt P53350); assay: PLK TR-FRET peptide assay, PLK1; details: read-out: Plk1 IC50
GST-PLK1, sequence (P53350 whole entry): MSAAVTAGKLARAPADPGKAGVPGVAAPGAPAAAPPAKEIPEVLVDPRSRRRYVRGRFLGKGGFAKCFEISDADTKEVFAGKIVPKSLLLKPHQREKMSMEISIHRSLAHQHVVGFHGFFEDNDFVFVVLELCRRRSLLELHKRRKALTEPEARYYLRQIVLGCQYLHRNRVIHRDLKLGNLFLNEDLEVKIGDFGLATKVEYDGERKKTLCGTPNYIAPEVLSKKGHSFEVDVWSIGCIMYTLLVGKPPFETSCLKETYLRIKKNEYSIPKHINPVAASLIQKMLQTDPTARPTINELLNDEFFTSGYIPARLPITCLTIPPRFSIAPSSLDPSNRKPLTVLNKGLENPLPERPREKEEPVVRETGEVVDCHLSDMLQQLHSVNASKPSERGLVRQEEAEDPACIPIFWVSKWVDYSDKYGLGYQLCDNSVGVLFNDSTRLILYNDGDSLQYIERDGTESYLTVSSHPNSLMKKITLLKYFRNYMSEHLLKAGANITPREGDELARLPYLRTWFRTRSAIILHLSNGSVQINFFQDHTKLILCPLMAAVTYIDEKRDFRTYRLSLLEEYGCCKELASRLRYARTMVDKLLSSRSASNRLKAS

T1 sequence (Q9NYY3 whole entry): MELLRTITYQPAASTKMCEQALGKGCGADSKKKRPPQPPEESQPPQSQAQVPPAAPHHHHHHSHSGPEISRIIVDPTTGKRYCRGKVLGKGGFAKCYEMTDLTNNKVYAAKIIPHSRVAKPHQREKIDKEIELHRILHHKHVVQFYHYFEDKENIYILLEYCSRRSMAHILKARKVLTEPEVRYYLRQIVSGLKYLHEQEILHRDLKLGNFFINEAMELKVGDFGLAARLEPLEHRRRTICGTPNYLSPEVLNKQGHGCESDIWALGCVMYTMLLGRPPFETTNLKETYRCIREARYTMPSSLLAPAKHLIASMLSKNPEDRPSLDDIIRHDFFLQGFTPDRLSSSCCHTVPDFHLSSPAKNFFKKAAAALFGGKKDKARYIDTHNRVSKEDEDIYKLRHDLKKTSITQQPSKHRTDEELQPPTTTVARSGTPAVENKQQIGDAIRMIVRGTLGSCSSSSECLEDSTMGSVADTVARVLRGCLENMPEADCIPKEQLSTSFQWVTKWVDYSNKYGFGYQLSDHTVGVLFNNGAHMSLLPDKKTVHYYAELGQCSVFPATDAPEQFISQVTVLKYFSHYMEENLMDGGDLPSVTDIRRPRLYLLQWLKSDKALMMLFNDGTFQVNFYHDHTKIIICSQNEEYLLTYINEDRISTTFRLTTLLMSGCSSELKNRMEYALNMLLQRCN

Compound | IC50 (GST-PLK2) | IC50 (GST-PLK3) | IC50 (GST-PLK1) | PLK2 activity relative to the opposite enantiomer / other isomer (GST-PLK2)
CCC1C(=O)N(C)c2cnc(-n3ccnc3-c3ccc(F)cc3)nc2N1c1cnn(COCC[Si](C)(C)C)c1 (centres unmarked) [Example 342, 7-ethyl-2-(2-(4-fluorophenyl)-1H-imidazol-1-yl)-5-methyl-8-(1-((2-(trimethylsilyl)ethoxy)methyl)-1H-pyrazol-4-yl)-7,8-dihydropteridin-6(5H)-one] | < 1 µM | 1 to 10 µM | 10 to 50 µM | –
CCC1C(=O)N(C)c2cnc(-n3ccnc3)nc2N1c1cn[nH]c1 (centres unmarked) [Example 343, 7-ethyl-2-(1H-imidazol-1-yl)-5-methyl-8-(1H-pyrazol-4-yl)-7,8-dihydropteridin-6(5H)-one] | 1 to 10 µM | > 50 µM | > 50 µM | –
CC[C@@]12COCCN1c1nc(-c3cn[nH]c3-c3nccs3)ncc1N(C)C2=O [Example 344, (S)-6a-ethyl-5-methyl-2-(5-(thiazol-2-yl)-1H-pyrazol-4-yl)-6a,7,9,10-tetrahydro-[1,4]oxazino[3,4-h]pteridin-6(5H)-one] | < 1 µM | 10 to 50 µM | > 50 µM | more active compound
CC[C@]12COCCN1c1nc(-c3cn[nH]c3-c3nccs3)ncc1N(C)C2=O [Example 345, (R)-6a-ethyl-5-methyl-2-(5-(thiazol-2-yl)-1H-pyrazol-4-yl)-6a,7,9,10-tetrahydro-[1,4]oxazino[3,4-h]pteridin-6(5H)-one] | 10 to 50 µM | > 50 µM | > 50 µM | –
CC[C@@]12COCCN1c1nc(-c3snnc3-c3ccccc3)ncc1N(C)C2=O [Example 368, (S)-6a-ethyl-5-methyl-2-(4-phenyl-1,2,3-thiadiazol-5-yl)-6a,7,9,10-tetrahydro-[1,4]oxazino[3,4-h]pteridin-6(5H)-one] | < 1 µM | 1 to 10 µM | > 50 µM | more active compound
CC[C@]12COCCN1c1nc(-c3snnc3-c3ccccc3)ncc1N(C)C2=O [Example 369, (R)-6a-ethyl-5-methyl-2-(4-phenyl-1,2,3-thiadiazol-5-yl)-6a,7,9,10-tetrahydro-[1,4]oxazino[3,4-h]pteridin-6(5H)-one] | > 50 µM | > 50 µM | > 50 µM | –
CC[C@@]12COCCN1c1nc(-c3[nH]nnc3-c3ccccc3)ncc1N(C)C2=O [Example 373, (S)-6a-ethyl-5-methyl-2-(4-phenyl-1H-1,2,3-triazol-5-yl)-6a,7,9,10-tetrahydro-[1,4]oxazino[3,4-h]pteridin-6(5H)-one] | 1 to 10 µM | 1 to 10 µM | 10 to 50 µM | –
CC[C@@]12CN(C)CCN1c1nc(-n3ccnc3-c3ccccc3)ncc1N(C)C2=O [Example 374, (S)-6a-ethyl-5,8-dimethyl-2-(2-phenyl-1H-imidazol-1-yl)-'7,8,9,10-tetrahydro-5H-pyrazino[2,1-h]pteridin-6(6aH)-one] | < 1 µM | 10 to 50 µM | > 50 µM | more active compound
CC[C@]12CN(C)CCN1c1nc(-n3ccnc3-c3ccccc3)ncc1N(C)C2=O [Example 375, (R)-6a-ethyl-5,8-dimethyl-2-(2-phenyl-1H-imidazol-1-yl)-7,8,9,10-tetrahydro-5H-pyrazino[2,1-h]pteridin-6(6aH)-one] | 10 to 50 µM | > 50 µM | > 50 µM | –
CC[C@@]12COCCN1c1nc(-n3ccnc3-c3ccc(F)cc3F)ncc1N(C)C2=O [Example 376, (S)-2-(2-(2,4-difluorophenyl)-1H-imidazol-1-yl)-6a-ethyl-5-methyl-6a,7,9,10-tetrahydro-[1,4]oxazino[3,4-h]pteridin-6(5H)-one] | < 1 µM | 10 to 50 µM | 10 to 50 µM | more active compound
CC[C@]12COCCN1c1nc(-n3ccnc3-c3ccc(F)cc3F)ncc1N(C)C2=O [Example 377, (R)-2-(2-(2,4-difluorophenyl)-1H-imidazol-1-yl)-6a-ethyl-5-methyl-6a,7,9,10-tetrahydro-[1,4]oxazino[3,4-h]pteridin-6(5H)-one] | 10 to 50 µM | > 50 µM | > 50 µM | –
CC[C@@]12COCCN1c1nc(-n3ccnc3-c3ccc(F)cn3)ncc1N(C)C2=O [Example 380, (S)-6a-ethyl-2-(2-(5-fluoropyridin-2-yl)-1H-imidazol-1-yl)-5-methyl-6a,7,9,10-tetrahydro-[1,4]oxazino[3,4-h]pteridin-6(5H)-one] | < 1 µM | > 50 µM | > 50 µM | more active compound
CC[C@]12COCCN1c1nc(-n3ccnc3-c3ccc(F)cn3)ncc1N(C)C2=O [Example 381, (R)-6a-ethyl-2-(2-(5-fluoropyridin-2-yl)-1H-imidazol-1-yl)-5-methyl-6a,7,9,10-tetrahydro-[1,4]oxazino[3,4-h]pteridin-6(5H)-one] | > 50 µM | > 50 µM | > 50 µM | –
CC[C@]12COCCN1c1nc(-n3ccnc3-c3nccs3)ncc1N(C)C2=O [Example 386, (R)-6a-ethyl-5-methyl-2-(2-(thiazol-2-yl)-1H-imidazol-1-yl)-6a,7,9,10-tetrahydro-[1,4]oxazino[3,4-h]pteridin-6(5H)-one] | > 50 µM | > 50 µM | > 50 µM | –
CC[C@@]12COCCN1c1nc(-n3ccnc3-c3nccs3)ncc1N(C)C2=O [Example 387, (S)-6a-ethyl-5-methyl-2-(2-(thiazol-2-yl)-1H-imidazol-1-yl)-6a,7,9,10-tetrahydro-[1,4]oxazino[3,4-h]pteridin-6(5H)-one] | < 1 µM | > 50 µM | > 50 µM | more active compound
CC[C@@]12COCCN1c1nc(-c3ccncc3-c3ccccc3)ncc1N(C)C2=O [Example 394, (S)-6a-ethyl-5-methyl-2-(3-phenylpyridin-4-yl)-6a,7,9,10-tetrahydro-[1,4]oxazino[3,4-h]pteridin-6(5H)-one] | < 1 µM | 1 to 10 µM | 1 to 10 µM | more active compound
CC[C@@]12COCCN1c1nc(-c3ccncc3-c3ccccc3)ncc1N(C)C2=O [Example 395] | < 1 µM | 1 to 10 µM | < 1 µM | –
CC[C@]12COCCN1c1nc(-c3ccncc3-c3ccccc3)ncc1N(C)C2=O [Example 396, (R)-6a-ethyl-5-methyl-2-(3-phenylpyridin-4-yl)-6a,7,9,10-tetrahydro-[1,4]oxazino[3,4-h]pteridin-6(5H)-one] | > 50 µM | > 50 µM | > 50 µM | –
CC[C@@]12COCCN1c1nc(-c3snnc3-c3ccc(F)cc3F)ncc1N(C)C2=O [Example 397, (S)-2-(4-(2,4-difluorophenyl)-1,2,3-thiadiazol-5-yl)-6a-ethyl-5-methyl-6a,7,9,10-tetrahydro-[1,4]oxazino[3,4-h]pteridin-6(5H)-one] | < 1 µM | 10 to 50 µM | 10 to 50 µM | more active compound
CC[C@]12COCCN1c1nc(-c3snnc3-c3ccc(F)cc3F)ncc1N(C)C2=O [Example 398, (R)-2-(4-(2,4-difluorophenyl)-1,2,3-thiadiazol-5-yl)-6a-ethyl-5-methyl-6a,7,9,10-tetrahydro-[1,4]oxazino[3,4-h]pteridin-6(5H)-one] | > 50 µM | > 50 µM | > 50 µM | –

From patent publication US8445503B2, “Inhibitors of polo-like kinase” (Elan Pharmaceuticals, Inc., priority 2009, dated 2013)
